Molecules are shown by their SMILES. Where a name gives a salt, the structure may show the parent alone.

For four compounds, IC50 and IC25 results are on record in publication PMC7278776, “Multidrug Resistance Modulation Activity of Silybin Derivatives and Their Anti-Inflammatory Potential” (Antioxidants, 2020).

Series [1] deals with nitric oxide (NO) production by LPS-stimulated macrophages (RAW 264.7). Put plainly: NO production by LPS-stimulated macrophages (Griess). In kind it is cell-based, mouse. The note with it: Mus musculus, RAW264.7; RAW 264.7, LPS 1 µg/mL, 24 h; read-out: NO Production, concentration necessary to halve NO production (IC50). How it is done: Immunomodulatory effect of tested compounds was determined as their ability to decrease nitric oxide (NO) production by LPS-stimulated macrophages (RAW 264.7, Sigma-Aldrich). Briefly, the cells were seeded into the 96-well plate at a density of 1 × 10^6 cells/mL in DMEM medium (supplemented with 2 mM L-glutamine and 1 × antibiotic antimycotic solution). After 48 h, the cells were washed with PBS. The MEM medium enriched with LPS (1 µg/mL) was added to the wells, together with the samples in the concentration range of 6.25–100 µM at a final volume of 100 µL. Indomethacin, a non-steroidal anti-inflammatory drug, was tested as a positive control in the concentration range 6.25–100 µM. After 24 h, the medium was used for the quantification of NO and inflammatory cytokines.
After 15 min, absorbance was recorded at 540 nm.

The test system of series [2] is A2780/DOX. Put plainly: Sensitization of the MDR cell line to doxorubicin. The note with it: Homo sapiens, no flavonolignan added, same value repeated in each column, read-out: IC50 of doxorubicin alone. In kind it is cell-based, human.
For series [3], the system named is A2780/DOX. Description: Viability of A2780/DOX cells (resazurin). On the procedure:
To determine the NO production, the medium was mixed with Griess reagent (0.04 g/mL, prepared in deionized water) in a 1:1 ratio. After 15 min, absorbance was recorded at 540 nm. To determine cell viability, the resazurin solution (0.03 mg/mL in PBS) was added to the cells. After 2 h of incubation, fluorescence was recorded (560/590 nm, ex./em.).
A multidrug resistant ovarian sub-line resistant to doxorubicin (A2780/DOX, Sigma-Aldrich) was cultivated in DMEM medium with 10% FBS and 1 × antibiotic antimycotic solution. Every other passage, doxorubicin at the final concentration of 0.1 µM was added to the culture medium to maintain the resistance of the cell line. To perform experiments, the cells were seeded at 1 × 10^5 cell/mL into the wells of a 96-well plate and incubated for 24 h. Afterwards, the cells were washed with PBS and fresh DMEM medium with tested compounds at 10, 20 and 30 µM were added to each well, except for the control wells. Subsequently, the cells were exposed to increasing concentrations of doxorubicin (0.6–20 µM) for 72 h. After incubation, the resazurin assay was performed as described above. The IC50 of doxorubicin was calculated for both the control and the samples and the fold change was counted up. […] The fold change lower than 1 means an antagonistic effect. (1) FOLD CHANGE=IC50 value of DOX cells treated with chemotherapeutic /IC50 value of DOX cells treated with chemotherapeutic and compound
For orientation: The colour change of resazurin is a common sign of viable cells or microbes.

A further series addresses T1, human recombinant P-gp (Homo sapiens, UniProt P08183).
T1 construct: purchased Promega
Put plainly: biochemical. Particulars: verapamil-stimulated P-gp ATPase, membrane fraction; read-out: P-gp, concentration necessary to halve ATP consumption (IC50). On the procedure: The procedure and the dilution of the reagents were performed according to the manufacturer’s instructions. Briefly, the human recombinant P-gp-containing membrane (25 µg) was mixed in a 96-well plate with P-gp–Glo™ Assay buffer (control), verapamil (P-gp substrate, positive control, 0.2 mM), Na3VO4 (P-gp inhibitor, negative control, 0.1 mM), ATP standards (to construct the calibration curve, 0.375–3 mM) or samples (2.5 µL, in the concentration range 0.7–20 mM). After that, MgATP (5 mM) was added to total volume of 50 µL to each well to initiate the ATPase reaction. The plate was incubated for 1 h at 37 °C. Thereafter, the reaction was stopped by adding 50 µL of ATP detection reagent and incubated at room temperature for 20 min. The remaining non-metabolized ATP was detected as a luciferase-generated signal.
Using linear regression, the standard ATP curve was designed, and by subsequent interpolation of relative luminescence (RLU) of standards, the amount of ATP consumed in the samples was recalculated according to the manufacturer’s guidelines.

The test system of a further series is HepG2 cells. Put plainly: CAA (cellular antioxidant activity) assay. In kind it is cell-based. Particulars: Homo sapiens; HepG2, DCFH-DA/AAPH; read-out: CAA, concentration necessary to halve the fluorescence response (IC50). How it is done: For the CAA assay, human hepatocellular carcinoma HepG2 cells (ATCC, Manassas, VA, USA) were seeded into a 96-well microplate at a density of 1 × 10^5 cells/well in EMEM medium supplemented with 10% of FBS, 2 mM L-glutamine and 1 × antibiotic antimycotic solution. The cells were maintained in a CO2 incubator (5% CO2, 37 °C, Memmert GmbH & Co, Büchenbach, Germany). The following day, the plates were washed with PBS and new fresh DMEM was added into each well supplemented with tested samples in the concentration range of 6.25–100 µM and fluorescent probe DCFH-DA (12.5 mg/L). After 1 h of incubation at 37 °C, the medium was replaced with AAPH solution (0.16 mg/mL in PBS), except for the negative control, where PBS was added instead. Directly, the fluorescence was recorded for 2 h in 5 min steps at 485/540 nm excitation/emission (ex./em.).

The nature of series [4]: ORAC (oxygen radical absorption capacity) assay. The note with it: fluorescein/AAPH; read-out: ORAC, concentration necessary to halve the fluorescence response (IC50). On the procedure:
Antioxidant capacity of samples was determined by ORAC (oxygen radical absorption capacity) and CAA (cellular antioxidant activity) assays. ORAC assay was realized by the previously described protocol. Briefly, 50 µL of the fluorescein solution (1.6 µg/mL in phosphate-buffered saline (PBS), pH 7.4) was added by a dispenser (MultiFlo Microplate Dispenser, BioTek Instrument, Winooski, VT, USA) into each well of a 96-well plate. Subsequently, 2 µL of tested compound in the concentration range 1.25–20 µM and 23 µL of PBS were added to the wells. The plate was incubated for 15 min at 37 °C and then 25 µL of AAPH (60 mg/mL) was added to each well. AAPH was replaced with PBS for the negative control. Immediately, the fluorescence was recorded by the microplate reader (SpectraMax i3 Multi-Mode Detection Platform, Molecular Devices, San Jose, CA, USA) for 2 h in 5 min steps (excitation/emission 485/535 nm).

T1 sequence (P08183 whole entry): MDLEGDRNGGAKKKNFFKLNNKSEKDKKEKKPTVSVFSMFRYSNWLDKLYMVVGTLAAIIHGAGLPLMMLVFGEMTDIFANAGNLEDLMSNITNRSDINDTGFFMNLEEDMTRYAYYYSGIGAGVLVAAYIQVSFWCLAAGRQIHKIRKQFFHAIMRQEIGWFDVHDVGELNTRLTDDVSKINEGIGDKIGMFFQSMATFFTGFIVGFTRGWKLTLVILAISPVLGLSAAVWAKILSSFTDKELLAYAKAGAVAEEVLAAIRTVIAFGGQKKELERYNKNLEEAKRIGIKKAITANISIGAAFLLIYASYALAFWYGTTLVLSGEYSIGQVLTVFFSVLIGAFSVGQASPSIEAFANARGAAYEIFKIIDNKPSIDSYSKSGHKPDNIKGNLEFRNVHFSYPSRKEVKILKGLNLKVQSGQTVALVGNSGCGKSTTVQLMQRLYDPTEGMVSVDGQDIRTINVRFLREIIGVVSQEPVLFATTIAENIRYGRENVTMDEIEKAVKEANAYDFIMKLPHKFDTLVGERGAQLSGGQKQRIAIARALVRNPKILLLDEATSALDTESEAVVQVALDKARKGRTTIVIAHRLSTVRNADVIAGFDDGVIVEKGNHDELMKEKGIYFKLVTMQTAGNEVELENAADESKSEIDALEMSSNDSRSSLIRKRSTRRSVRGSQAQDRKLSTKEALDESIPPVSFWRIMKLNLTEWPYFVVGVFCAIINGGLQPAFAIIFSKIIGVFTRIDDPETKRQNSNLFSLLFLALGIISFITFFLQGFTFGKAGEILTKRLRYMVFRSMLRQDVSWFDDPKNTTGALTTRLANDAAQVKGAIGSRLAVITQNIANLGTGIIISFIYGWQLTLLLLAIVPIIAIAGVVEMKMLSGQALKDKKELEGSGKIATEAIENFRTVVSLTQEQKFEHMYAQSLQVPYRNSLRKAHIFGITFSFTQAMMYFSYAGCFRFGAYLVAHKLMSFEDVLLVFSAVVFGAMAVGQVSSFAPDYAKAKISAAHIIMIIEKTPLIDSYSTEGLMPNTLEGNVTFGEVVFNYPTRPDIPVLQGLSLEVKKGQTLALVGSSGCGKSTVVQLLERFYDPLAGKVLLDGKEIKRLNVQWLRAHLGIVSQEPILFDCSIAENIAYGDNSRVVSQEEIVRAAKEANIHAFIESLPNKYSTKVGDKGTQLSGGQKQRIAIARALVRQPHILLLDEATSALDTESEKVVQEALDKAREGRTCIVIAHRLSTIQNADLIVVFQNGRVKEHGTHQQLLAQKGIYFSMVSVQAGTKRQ

Consider `COc1ccc2c(c1)c(CC(=O)O)c(C)n2C(=O)c1ccc(Cl)cc1` [Indomethacin, indomethacin, reference compound], for which, in series [1], the IC50 was determined as 78.1 ± 7.5 µM. Consider `COc1cccc2c1C(=O)c1c(O)c3c(c(O)c1C2=O)C[C@@](O)(C(=O)CO)C[C@@H]3O[C@H]1C[C@H](N)[C@H](O)[C@H](C)O1` [Doxorubicin, doxorubicin hydrochloride, reference compound], for which the IC50 was 1.88 ± 0.07 µM in the series with A2780/DOX [2] and 1.88 ± 0.07 µM with A2780/DOX [3] (Homo sapiens, A2780, read-out: IC50 (µM), concentration necessary to halve cell viability). The 25% effect concentration (IC25) (in general, the concentration at which the effect reaches the 25% level) in the series on A2780/DOX [3] (A2780/DOX) was 0.94 µM.

Regarding `[Na+].[Na+].[Na+].[O]=[V]([O-])([O-])[O-]` [Orthovanadate, Sodium orthovanadate (Na3VO4), reference compound], the IC50 at human recombinant P-gp is 18.9 ± 1.8 µM. On to `O=c1c(O)c(-c2ccc(O)c(O)c2)oc2cc(O)cc(O)c12` [Quercetin, quercetin, reference compound], for which the IC50 in the series on HepG2 cells turned out to be 5.4 ± 0.3 µM; in series [4] it was 6 ± 0.7 µM.
